System: Hartley male guinea pigs
Test: Blood cholesterol level lowering effect in guinea pigs, oral administration once a day for 14 days
Format: in vivo, guinea pig
Settings: ezetimibe 3 mg/kg, oral once a day for 14 days, blood collected after 18 h fast; for Reduction ratio (%) of blood cholesterol level: vs control group
Experimental: The blood cholesterol level lowering effect when a calcium salt of pitavastatin and ezetimibe were coadministered was measured by the below-described testing method. For comparison, a calcium salt of atorvastatin was used instead of the calcium salt of pitavastatin and the effect brought about by the concomitant use of two medicaments was measured in a similar manner. • 1. Animals Provided for the Test and Their Breeding Environment
Six-week-old Hartley male guinea pigs (purchased from Nippon SLC) were provided for the test. Throughout the test period, they were bred in a breeding room maintained at a light-dark cycle (a light term by a room light: from 7:00 am to 7:00 pm), a temperature of 23 ±3° C. and a humidity of 55 ±15% and fed with a solid feedstuff (“RC-4”, product of Oriental Yeast Industry) and tap water ad libitum. • 2. Preparation of Medicament
Treatment method according to the invention: The calcium salt of pitavastatin and ezetimibe were suspended in a 0.5 wt. % aqueous solution of carboxymethylcellulose sodium (product of Iwai Chemicals Company) and their concentrations were adjusted to 1 mg/mL and 3 mg/mL, respectively. Since the calcium salt of pitavastatin contained 9.43 wt. % of water, 1.1 times the weight of the dosage was weighed for correction. The suspension was refrigerated (4° C.) in a light resistant bottle and adjustment was conducted every 7 days.
Treatment method for comparison: In a similar manner to that described above except the use of the calcium salt of atorvastatin instead of the calcium salt of pitavastatin, a medicament (atorvastatin calcium 5 mg/mL) for comparison test was prepared. • 3. Testing Method
The treatment method according to the present invention: Twenty four guinea pigs were classified into four groups (each consisting of 6 guinea pigs), that is, a control group, a single administration group of pitavastatin calcium salt (1 mg/kg), a single administration group of ezetimibe (3 mg/kg), and a coadministration group of pitavastatin calcium salt (1 mg/kg) and ezetimibe (3 mg/kg) so that they differ little in the total blood cholesterol level and blood triglyceride level. These two medicaments were each administered at a dose of 1 mL/kg once a day and this administration was repeated for 14 days. To the control group, a 0.5 wt. % aqueous solution (1 mL/kg) of carboxymethylcellulose sodium was orally administered. In each group, the guinea pigs were fasted for 18 hours after the final administration and then the blood was collected from them to measure the blood cholesterol level.
Treatment method for comparison: twenty four guinea pigs were tested in a similar manner to the method according to the invention. The dosage of the calcium salt of atorvastatin was 5 mg/kg in each of the group nourished by the single use of atorvastatin calcium salt and the group nourished by the concomitant use of atorvastatin calcium salt and ezetimibe. • 4. Static Analysis and Data Processing Method
Multigroup comparison between the control group and the medicament administered group was performed using Bartlett's variance analysis—Dunnett's multiple comparative assay. A difference with a significance level less than 5% was regarded as significant. • 5. Results
A reduction ratio (%) is a value represented by ((total blood cholesterol level of control group on average−total blood cholesterol level of each group on average)/(total blood cholesterol level of control group on average))×100, while a relative index is a value represented by (total blood cholesterol level of each group on average)/(total blood cholesterol level of control group on average).

[1] = Table 2 comparison test: atorvastatin Ca 5 mg/kg
[2] = Table 1 test: pitavastatin Ca 1 mg/kg

Compound	Relative index (total blood cholesterol level of group / control group) [1]	Reduction ratio (%) of blood cholesterol level [1] [%]	Relative index (total blood cholesterol level of group / control group) [2]	Reduction ratio (%) of blood cholesterol level [2] [%]
CC(C)c1c(C(=O)Nc2ccccc2)c(-c2ccccc2)c(-c2ccc(F)cc2)n1CC[C@@H](O)C[C@@H](O)CC(=O)O [atorvastatin Ca]	0.77	23	–	–
O=C1[C@H](CC[C@H](O)c2ccc(F)cc2)[C@@H](c2ccc(O)cc2)N1c1ccc(F)cc1 [ezetimibe, (3R,4S)-1-(4-fluorophenyl)-3-[(3S)-3-(4-fluorophenyl)-3-hydroxypropyl]-4-(4-hydroxyphenyl)-2-azetidinone]	0.81	19	0.79	21
O=C(O)C[C@H](O)C[C@H](O)/C=C/c1c(C2CC2)nc2ccccc2c1-c1ccc(F)cc1 [pitavastatin Ca, (3R,5S,6E)-7-[2-cyclopropyl-4-(4-fluorophenyl)-3-quinolyl]-3,5-dihydroxy-6-heptenoic acid]	–	–	0.71	29

Source: patent US7459447B2, “Method for treating hyperlipidemia” (Kowa Co., Ltd., priority 2004, dated 2008)
